From ChEMBL document CHEMBL5584314, “Identification of an m6A Natural Inhibitor, Lobeline, That Reverses Lenvatinib Resistance in Hepatocellular Tumors” (J Nat Prod, 2024)
Activity calls are given as the source filed them. The rule behind the calls is not given here.

How the values were obtained:
[1] = target: N6-adenosine-methyltransferase catalytic subunit (Homo sapiens) (UniProt Q86U44); experiment: Inhibition of METTL3 in human Lenvatinib-resistant Huh7/Len cells assessed as effect on SLC7A11 mRNA expression level at 2 uM incubated for 72 hrs by RT-PCR analysis; type: cell-based
[2] = system: Lenvatinib-resistant Hep3B/Len; experiment: Antiproliferative activity against human Lenvatinib-resistant Hep3B/Len cells assessed as inhibition of cell viability at 5 uM after 72 hrs in presence of lenvatinib by CCK-8 assay; type: functional, cell-based
[3] = target: N6-adenosine-methyltransferase catalytic subunit (Homo sapiens) (UniProt Q86U44); experiment: Inhibition of METTL3 in human Huh-7 cells assessed as down regulation of m6A RNA level incubated for 72 hrs by Dot blot assay; type: cell-based; conditions: dose 5-10 µM
[4] = target: N6-adenosine-methyltransferase catalytic subunit (Homo sapiens) (UniProt Q86U44); experiment: Inhibition of METTL3 in human Lenvatinib-resistant Huh7/Len cells assessed as effect on CTSL mRNA expression level at 2 uM incubated for 72 hrs by RT-PCR analysis; type: cell-based
[5] = system: Lenvatinib-resistant Hep3B/Len; experiment: Inhibition of cell migration in human Lenvatinib-resistant Hep3B/Len cells at 5 uM incubated for 48 hrs by transwell assay; type: functional, cell-based
[6] = target: N6-adenosine-methyltransferase catalytic subunit (Homo sapiens) (UniProt Q86U44); experiment: Inhibition of METTL3 in human Huh-7 cells assessed as down regulation of m6A RNA level at 2 uM incubated for 72 hrs by Dot blot assay; type: cell-based
[7] = system: Lenvatinib-resistant Hep3B/Len; experiment: Inhibition of cell migration in human Lenvatinib-resistant Hep3B/Len cells at 5 uM incubated for 48 hrs in presence of lenvatinib by transwell assay relative to control; type: functional
[8] = system: Lenvatinib-resistant HCC/Len; experiment: Antitumor activity against human Lenvatinib-resistant HCC/Len cells xenografted in BALB/c nude mouse model of PDX assessed as inhibition of tumor volume at 1.5 mg/kg, ip cotreated with lenvatinib 5 times per week for 3 weeks; type: functional; conditions: 504 h
[9] = system: Lenvatinib-resistant HCC/Len; experiment: (§1) Antitumor activity against human Lenvatinib-resistant HCC/Len cells xenografted in BALB/c nude mouse model of PDX assessed as reduction in m6A expression in tumor tissue at 1.5 mg/kg, ip cotreated with lenvatinib 5 times per week for 3 weeks by immunohistochemistry analysis relative to control; type: functional, organism-based
[10] = system: Lenvatinib-resistant Huh7/Len; experiment: Inhibition of cell migration in human Lenvatinib-resistant Huh7/Len cells at 5 uM incubated for 48 hrs in presence of lenvatinib by transwell assay relative to control; type: functional
[11] = system: Lenvatinib-resistant Huh7/Len; experiment: Anticancer activity against human Lenvatinib-resistant Huh7/Len cells assessed as increase in m6A modification in coding region by MeRIP-m6A -sequencing analysis; type: functional, cell-based
[12] = Toxicity in BALB/c nude mouse xenografted with human Lenvatinib-resistant Huh7/Len cells assessed as changes in organ index at 1.5 mg/kg, ip administered 5 times per week for 3 weeks; type: organism-based; conditions: in vivo, 504 h
[13] = target: N6-adenosine-methyltransferase catalytic subunit (Homo sapiens) (UniProt Q86U44); experiment: Inhibition of METTL3 in human Lenvatinib-resistant Huh7/Len cells assessed as effect on LATS1 mRNA expression level at 2 uM incubated for 72 hrs by RT-PCR analysis; type: cell-based
[14] = system: Lenvatinib-resistant Huh7/Len; experiment: Induction of apoptosis in human Lenvatinib-resistant Huh7/Len cells xenografted in BALB/c nude mouse assessed as apoptotic cells in tumor tissue at 1.5 mg/kg, ip cotreated with lenvatinib 5 times per week for 3 weeks by TUNEL assay; type: functional, organism-based
[15] = system: Lenvatinib-resistant Hep3B/Len; experiment: Antiproliferative activity against human Lenvatinib-resistant Hep3B/Len cells assessed as inhibition of cell viability up to 40 uM after 72 hrs by CCK-8 assay; type: functional, cell-based
[16] = target: N6-adenosine-methyltransferase catalytic subunit (Homo sapiens) (UniProt Q86U44); experiment: Inhibition of METTL3 in human Lenvatinib-resistant Huh7/Len cells assessed as effect on MMP3 mRNA expression level at 2 uM incubated for 72 hrs by RT-PCR analysis; type: cell-based
[17] = target: N6-adenosine-methyltransferase catalytic subunit (Homo sapiens) (UniProt Q86U44); experiment: Inhibition of METTL3 in human Lenvatinib-resistant Huh7/Len cells assessed as effect on DEK mRNA expression level at 2 uM incubated for 72 hrs by RT-PCR analysis; type: cell-based
[18] = system: Lenvatinib-resistant Huh7/Len; experiment: Antiproliferative activity against human Lenvatinib-resistant Huh7/Len cells assessed as inhibition of cell viability at 5 uM uM after 72 hrs in presence of lenvatinib by CCK-8 assay; type: functional, cell-based
[19] = target: N6-adenosine-methyltransferase catalytic subunit (Homo sapiens) (UniProt Q86U44); experiment: Inhibition of METTL3 in human Lenvatinib-resistant Huh7/Len cells assessed as effect on TET1 mRNA expression level at 2 uM incubated for 72 hrs by RT-PCR analysis; type: cell-based
[20] = system: Lenvatinib-resistant HCC/Len; experiment: as §1, with “Ki-67 protein” for “m6A”; type: functional, organism-based
[21] = target: N6-adenosine-methyltransferase catalytic subunit (Homo sapiens) (UniProt Q86U44); experiment: Inhibition of METTL3 in human Lenvatinib-resistant Huh7/Len cells assessed as effect on UCK2 mRNA expression level at 2 uM incubated for 72 hrs by RT-PCR analysis; type: cell-based
[22] = system: Lenvatinib-resistant Huh7/Len; experiment: Antiproliferative activity against human Lenvatinib-resistant Huh7/Len cells assessed as inhibition of cell viability up to 40 uM after 72 hrs by CCK-8 assay; type: functional, cell-based
[23] = system: Lenvatinib-resistant Huh7/Len; experiment: Antitumor activity against human Lenvatinib-resistant Huh7/Len cells xenografted in BALB/c nude mouse assessed as reduction in Ki-67 protein expression in tumor tissue at 1.5 mg/kg, ip cotreated with lenvatinib 5 times per week for 3 weeks by immunohistochemistry analysis relative to control; type: functional; set-up: scale not given: the % may be the effect or the level left
[24] = target: N6-adenosine-methyltransferase catalytic subunit (Homo sapiens) (UniProt Q86U44); experiment: Inhibition of METTL3 in human Lenvatinib-resistant Huh7/Len cells assessed as effect on HNF4A mRNA expression level at 2 uM incubated for 72 hrs by RT-PCR analysis; type: cell-based
[25] = Toxicity in BALB/c nude mouse xenografted with human Lenvatinib-resistant Huh7/Len cells assessed as changes in body weight at 1.5 mg/kg, ip administered 5 times per week for 3 weeks; type: organism-based; conditions: in vivo, 504 h
Huh-7 = experiment: Effect on METTL3 protein expression in human Huh-7 cells at 2 uM incubated for 72 hrs by Western blot analysis; type: functional, cell-based
[26] = target: N6-adenosine-methyltransferase catalytic subunit (Homo sapiens) (UniProt Q86U44); experiment: Inhibition of METTL3 in human Lenvatinib-resistant Huh7/Len cells assessed as effect on NPCL1 mRNA expression level at 2 uM incubated for 72 hrs by RT-PCR analysis; type: cell-based
[27] = system: Lenvatinib-resistant Huh7/Len; experiment: Anticancer activity against human Lenvatinib-resistant Huh7/Len cells assessed as increase in GGA motif at m6A site by MeRIP-m6A -sequencing analysis; type: functional, cell-based
[28] = target: N6-adenosine-methyltransferase catalytic subunit (Homo sapiens) (UniProt Q86U44); experiment: Inhibition of METTL3 in human Lenvatinib-resistant Huh7/Len cells assessed as effect on AKT1 mRNA expression level at 2 uM incubated for 72 hrs by RT-PCR analysis; type: cell-based
[29] = Toxicity in BALB/c nude mouse xenografted with human Lenvatinib-resistant Huh7/Len cells assessed as changes in body weight at 1.5 mg/kg, ip cotreated with lenvatinib 5 times per week for 3 weeks; type: organism-based; conditions: in vivo, 504 h
[30] = Toxicity in BALB/c nude mouse PDX model xenografted with human Lenvatinib-resistant HCC/Len cells assessed as changes in body weight at 1.5 mg/kg, ip cotreated with lenvatinib 5 times per week for 3 weeks; type: organism-based; conditions: in vivo, 504 h
[31] = target: N6-adenosine-methyltransferase catalytic subunit (Homo sapiens) (UniProt Q86U44); experiment: Inhibition of METTL3 in human Lenvatinib-resistant Huh7/Len cells assessed as effect on ADAMTS9 mRNA expression level at 2 uM incubated for 72 hrs by RT-PCR analysis; type: cell-based
[32] = target: N6-adenosine-methyltransferase catalytic subunit (Homo sapiens) (UniProt Q86U44); experiment: Inhibition of METTL3 in human Huh-7 cells assessed as down regulation of m6A RNA level at 2 uM incubated for 72 hrs by colorimetric analysis; type: cell-based

Sequence of N6-adenosine-methyltransferase catalytic subunit (Homo sapiens) (Q86U44 whole entry): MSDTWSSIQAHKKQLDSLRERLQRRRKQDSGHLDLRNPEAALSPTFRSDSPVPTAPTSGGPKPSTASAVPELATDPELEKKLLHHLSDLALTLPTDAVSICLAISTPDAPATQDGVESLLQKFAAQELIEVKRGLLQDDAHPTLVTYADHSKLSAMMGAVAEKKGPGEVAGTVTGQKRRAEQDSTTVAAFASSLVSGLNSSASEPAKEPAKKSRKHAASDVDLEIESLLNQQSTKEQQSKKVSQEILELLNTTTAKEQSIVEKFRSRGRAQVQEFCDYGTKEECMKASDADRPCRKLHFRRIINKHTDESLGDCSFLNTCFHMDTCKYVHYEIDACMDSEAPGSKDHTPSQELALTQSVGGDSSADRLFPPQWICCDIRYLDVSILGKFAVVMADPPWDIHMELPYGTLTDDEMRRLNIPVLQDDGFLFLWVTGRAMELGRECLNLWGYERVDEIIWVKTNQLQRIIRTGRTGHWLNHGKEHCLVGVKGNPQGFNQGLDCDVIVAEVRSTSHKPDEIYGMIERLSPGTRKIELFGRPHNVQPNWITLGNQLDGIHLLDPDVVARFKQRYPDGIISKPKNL

For CN1[C@@H](CC(=O)c2ccccc2)CCC[C@H]1C[C@H](O)c1ccccc1 [LOBELINE], the inhibition [1] was “Active”, the inhibition [2] was “Active” and the inhibition [3] was “Dose-Dependent Effect”. The inhibition [4] was “Active”, the inhibition [5] was “inactive” and the inhibition [6] was “Active”. The inhibition at 5 µM [7] was 42%, the inhibition in vivo at 1.5 mg/kg [8] was 60% and the Activity [9] was “Active”. The inhibition at 5 µM [10] was 42%, the Activity [11] was “Active” and the Activity [12] was “Non-Toxic”. For the same molecule, the inhibition [13] was “Active”, the Activity [14] was “Active” and the inhibition [15] was “Active”. For the same molecule, the inhibition [16] was “Active”, the inhibition [17] was “Active” and the inhibition [18] was “Active”. The inhibition [19] was “Active”, the Activity [20] was “Active” and the inhibition [21] was “Active”. For the same molecule, the inhibition [22] was “Active”, the Activity [23] was 30% and the inhibition [24] was “Active”. For the same molecule, the Activity [25] was “Non-Toxic”, the Activity (Huh-7) was “inactive” and the inhibition [26] was “Active”. The Activity [27] was “Active”, the inhibition [28] was “Active” and the Activity [29] was “Non-Toxic”. For the same molecule, the Activity [30] was “Non-Toxic”, the inhibition [31] was “Active” and the inhibition [32] was 11%.
